Experiments:
[1] = target: T1, EF2K (Homo sapiens, UniProt O00418); assay: Biochemical EF2K lysate-based kinase assay (AlphaLISA p-eEF2 Thr56); conditions: LN-229 cell lysates, 10 mM ATP, pH 6.6; pIC50 = -log IC50 (M); read-out: eEF2K_C_alphalisa pIC50 (converted)
T1 construct: host or cells: LN-229 glioblastoma cell lysate
T1 sequence (O00418 1-725): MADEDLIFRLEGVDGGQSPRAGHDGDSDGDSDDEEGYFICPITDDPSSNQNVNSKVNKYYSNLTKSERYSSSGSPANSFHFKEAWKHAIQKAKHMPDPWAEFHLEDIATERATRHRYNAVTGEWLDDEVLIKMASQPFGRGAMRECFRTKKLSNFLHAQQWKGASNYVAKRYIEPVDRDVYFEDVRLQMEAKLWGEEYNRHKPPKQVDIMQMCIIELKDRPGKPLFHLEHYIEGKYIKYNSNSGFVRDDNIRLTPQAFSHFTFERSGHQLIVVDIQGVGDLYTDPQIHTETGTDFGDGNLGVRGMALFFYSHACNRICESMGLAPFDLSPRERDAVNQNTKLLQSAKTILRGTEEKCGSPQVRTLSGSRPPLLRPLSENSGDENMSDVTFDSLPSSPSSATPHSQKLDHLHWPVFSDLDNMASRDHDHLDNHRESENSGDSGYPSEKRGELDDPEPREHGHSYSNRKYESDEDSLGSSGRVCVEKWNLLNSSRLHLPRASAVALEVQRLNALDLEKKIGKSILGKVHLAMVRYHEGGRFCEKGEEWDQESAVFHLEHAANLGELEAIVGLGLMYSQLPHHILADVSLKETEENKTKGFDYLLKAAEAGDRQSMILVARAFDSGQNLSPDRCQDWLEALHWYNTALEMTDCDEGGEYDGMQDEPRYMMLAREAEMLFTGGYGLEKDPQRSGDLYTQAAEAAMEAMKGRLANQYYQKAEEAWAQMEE
From the text: LN-229 cells were purchased from ATCC (CRL-2611); these are glioblastoma cells. Cell lysates from LN229 were used in this kinase assay to provide both the kinase and the substrate (EF2). The AlphaLISA p-eEF2 (Thr56) detection assay was developed using a sandwich assay format with two specific antibodies recognizing different epitopes of the target, including one antibody against the phosphorylation site of interest. One anti-eEF2 antibody was conjugated onto AlphaLISA Acceptor beads, while the second antibody was biotinylated and captured by streptavidin coated Donor beads.
Compound was mixed with LN-229 cell lysates in the presence of a kinase buffer (e.g. HEPES) at a pH of 6.6, containing 10 mM Mg^2+ (e.g. magnesium acetate) and 10 mM adenosine-tri-phosphate (ATP) and incubated at room temperature for 15 minutes. The kinase reaction was stopped with excess ethylenediaminetetraacetic acid disodium salt and the biotinylated-anti phospho eEF2 antibody (3 nM) was added for 1 hour. Then the anti-EF2 acceptor beads (10 μg/ml) as well as the streptavidin coated donor beads (20 μg/ml) were added for 1 hour, and the AlphaLISA signal was measured in an Envision instrument once, left overnight, and measured again for the final read.

[2] = target: PIK3C3 lipid kinase (Homo sapiens, UniProt Q8NEB9); assay: Biochemical Vps34 lipid kinase assay (ADP-Glo); conditions: 20 μM ATP; for IC50: serial dilution 10 μM to 0.3 nM, pIC50 = -log IC50 (M); for remaining activity at 1 µM: 1 h, read-out: VPS34_1microM_%ofcntrl; for remaining activity at 1 µM / VPS34_1microM_%ofcntrl: single dose 1 μM, residual activity compared to control (DMSO)
Procedure: A non-radiometric kinase assay (ADP-Glo™ Assay, Promega, Madison, Wi, USA) was used for measuring the kinase activity of the PIK3C3 lipid kinase. All kinase assays were performed in 96-well half-area microtiter plates in a 25 μl reaction volume. The reaction cocktail was pipetted in 3 steps in the following order: • 10 μl of ATP solution (in assay buffer, see below) • 5 μl of test sample in 5% DMSO 10 μl of enzyme/substrate mixture
All lipid kinase assays contained 50 mM HEPES (4-(2-hydroxyethyl)-1-piperazineethanesulfonic acid)—NaOH, pH 7.5, 1 mM EGTA ((ethylene glycol tetraacetic acid), 100 mM NaCl, 0.03% CHAPS (3-[(3-Cholamidopropyl) dimethylammonio]-1-propanesulfonate), 2 mM DTT (Dithiothreitol), 20 μM ATP (corresponding to the apparent ATP-Km), kinase (7.6 nM) and substrate (50 μM). The assay for PIK3C3 additionally contained 3 mM MnCl2.
The reaction cocktails were incubated at 30° C. for 60 minutes. The reaction was stopped with 25 μl ADP-Glo™ reagent per well. Plates were incubated for 40 minutes at room temperature, followed by addition of 50 μl kinase detection reagent per well and incubation for 60 minutes at room temperature. Signal was determined with a microplate luminescence reader (Victor, Perkin Elmer). The assay was either performed using a single dose of compound (1 μM final concentration in the assay reaction) with resulting data expressed as residual activity compared to control (DMSO), or using a serial (half-log) dilution of compounds starting at 10 μM and down to 0.3 nM (final concentrations in the assay) with data expressed as the pIC50.

[3] = target: T2, eEF2K (Homo sapiens, UniProt O00418); assay: EF2K cell-based assay (P-EF2 AlphaLISA, 2-deoxyglucose stimulated MCF10A cells); conditions: 2.5 mM 2-deoxyglucose 4 h, phosphorylation of EF2 at Thr 56, pIC50 = -log IC50 (M); for IC50: read-out: eEF2K_C_PThr56 pIC50 (converted)
T2 construct: in the immortalized epithelial breast cell lines, MCF10A; host or cells: MCF10A immortalized breast epithelial cells
T2 sequence (O00418 1-725): T1 sequence (O00418 1-725)
Procedure: In this assay, 2.5 mM 2-deoxyglucose was used to deplete intracellular ATP and activate 5′ adenosine monophosphate-activated protein kinase (AMPK) in the immortalized epithelial breast cell lines, MCF10A. MCF 10A cells were purchased from ATCC (CRL-10317).
MCF10A cells are seeded at a density of 1.25×10^5 Cells/ml at 100 μl/well in a 96-well plate and incubated for 24 hours (37° C., 5% CO2). Compound is added for 1 hour, and cell are stimulated with 2.5 mM of 2-deoxy-glucose for 4 hours. Medium is then removed, and cells are lysed in an ice-cold buffer M-PER (Thermo Scientific, 78501), containing protease and phosphatase inhibitors. P-EF2 levels are determined in these lysates using the P-EF2 AlphaLISA described above.

Chain of PIK3C3 lipid kinase (Q8NEB9 whole entry): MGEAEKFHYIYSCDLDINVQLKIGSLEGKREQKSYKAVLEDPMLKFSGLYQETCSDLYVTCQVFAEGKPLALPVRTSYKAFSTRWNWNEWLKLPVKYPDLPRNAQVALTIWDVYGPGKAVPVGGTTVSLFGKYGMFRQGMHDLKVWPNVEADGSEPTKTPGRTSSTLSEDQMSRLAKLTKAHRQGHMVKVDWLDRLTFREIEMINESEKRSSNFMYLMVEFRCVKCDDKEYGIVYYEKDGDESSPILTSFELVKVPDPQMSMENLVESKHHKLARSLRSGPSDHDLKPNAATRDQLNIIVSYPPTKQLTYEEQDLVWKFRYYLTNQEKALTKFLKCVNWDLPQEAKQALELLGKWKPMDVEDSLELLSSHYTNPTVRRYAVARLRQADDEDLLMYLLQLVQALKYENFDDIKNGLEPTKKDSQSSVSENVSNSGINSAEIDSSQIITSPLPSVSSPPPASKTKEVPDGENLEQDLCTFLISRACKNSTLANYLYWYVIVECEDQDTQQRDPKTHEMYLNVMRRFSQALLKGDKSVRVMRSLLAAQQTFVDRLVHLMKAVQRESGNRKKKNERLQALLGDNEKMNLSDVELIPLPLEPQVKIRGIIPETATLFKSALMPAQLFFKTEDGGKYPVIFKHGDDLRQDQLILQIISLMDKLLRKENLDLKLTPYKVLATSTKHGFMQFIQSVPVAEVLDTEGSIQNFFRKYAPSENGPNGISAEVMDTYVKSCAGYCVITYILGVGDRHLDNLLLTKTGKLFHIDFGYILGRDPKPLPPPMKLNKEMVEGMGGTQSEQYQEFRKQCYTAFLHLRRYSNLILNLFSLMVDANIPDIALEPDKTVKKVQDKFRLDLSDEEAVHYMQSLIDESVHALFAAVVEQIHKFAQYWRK

Structure (SMILES) | IC50 [1] | IC50 [2] | IC50 [3] | remaining activity at 1 µM [2] | VPS34_1microM_%ofcntrl [2] | eEF2K_C_PThr56 pIC50 [3]
COCC1C(=O)NCCCNc2ncc(cn2)-c2ccnc(c2)Nc2cccc(c2)CN2CCN1CC2 (single isomer, unassigned) [Compound 6] | 4.47e-08 M | 7.59e-07 M | 1.12e-06 M | – | – | –
O=C1CN2CCN(Cc3cccc(c3)Nc3cc(ccn3)-c3cnc(nc3)NCCCN1)C(CO)C2 (single isomer, unassigned) [Compound 8] | 4.17e-08 M | 1.66e-07 M | 2.57e-06 M | – | 9.64% | –
CC1c2cccc(c2)Nc2cc(ccn2)-c2cnc(nc2)NCCCNC(=O)C2(CC2)N2CCN1CC2 (single isomer, unassigned) [Compound 23] | 9.55e-08 M | 1.74e-06 M | ~2.95e-06 M | – | – | –
O=C1CN2CC3CCC2CN3Cc2cccc(c2)Nc2cc(ccn2)-c2cnc(nc2)NCCCN1 (single isomer, unassigned) [Compound 25] | 2.34e-06 M | 6.03e-07 M | > 1e-05 M | – | – | –
O=C1CN2CC3CCC2CN3Cc2cccc(c2)Nc2cc(ccn2)-c2cnc(nc2)NCCCN1 (single isomer, unassigned) [Compound 26] | 1.07e-06 M | 6.61e-08 M | – | 4.67% | – | <5
CC1c2cccc(c2)Nc2cc(ccn2)-c2cnc(nc2)N2CC(O)CC2CCNC(=O)C2(CC2)N2CCN1CC2 (single isomer, unassigned) [Compound 65] | 5.62e-09 M | 1.95e-07 M | 3.8e-07 M | – | – | –
CC1c2cccc(c2)Nc2cc(ccn2)-c2cnc(nc2)N2CC(O)CC2CCNC(=O)C2(CC2)N2CCN1CC2 (single isomer, unassigned) [Compound 66] | 6.17e-08 M | 1.12e-06 M | 9.12e-07 M | – | – | –
CNC(=O)C1CCNC(=O)CN2CCN(CC2)Cc2cccc(c2)Nc2cc(ccn2)-c2cnc(nc2)N1 (single isomer, unassigned) [Compound 124] | 3.98e-07 M | – | ~2.51e-05 M | 65.5% | – | –
O=C1CN2CCN(CC2)Cc2cccc(c2F)Nc2cc(ccn2)-c2cnc(nc2)NCCCN1 [Compound 1] | 1.05e-08 M | 4.9e-08 M | 3.63e-07 M | – | – | –
CNC(=O)c1ccc2cc1CN1CCN(CC1)CC(=O)NCCCNc1ncc(cn1)-c1ccnc(c1)N2 [Compound 9] | 3.47e-08 M | 1.66e-07 M | ~5.5e-06 M | 7.1% | – | –
CN1CCCNc2ncc(cn2)-c2ccnc(c2)Nc2cccc(c2)CN2CCN(CC2)CC1=O [Compound 13] | 6.46e-07 M | – | 9.12e-06 M | 34.9% | – | –
O=C1CN2CCN(Cc3cccc(c3)Nc3cc(ccn3)-c3cnc(nc3)NCCCN1)C1(CC1)C2 [Compound 27] | 1.07e-08 M | 2.57e-08 M | ~1.23e-06 M | – | – | –
O=C1CN2CCN(CC2)Cc2cccc(c2)Nc2cc(ccn2)-c2cnc(nc2)NCCCN1 [Compound 33] | ~2.19e-08 M | 2.19e-07 M | ~7.94e-07 M | – | – | –
NCCCOCC1CN2CCN1Cc1cccc(c1)Nc1cc(ccn1)-c1cnc(nc1)NCCCNC(=O)C2 (stereo not shown) [Compound 114] | – | 5.13e-07 M | > 1e-05 M | – | 29.15% | –
NCCCOCC1CN2CCN1Cc1cccc(c1)Nc1cc(ccn1)-c1cnc(nc1)NCCCNC(=O)C2 (stereo not shown) [Compound 148] | – | 9.33e-08 M | – | – | 9.53% | <5

Continued, values first:

IC50 [1] | IC50 [2] | IC50 [3] | remaining activity at 1 µM [2] | VPS34_1microM_%ofcntrl [2] | eEF2K_C_PThr56 pIC50 [3] | Structure (SMILES)
4.79e-08 M | 5.5e-07 M | ~2.51e-06 M | – | – | – | O=C1NCCCNc2ncc(cn2)-c2ccnc(c2)Nc2cccc(c2)CN2CCN(CC2)C1CO (single isomer, unassigned) [Compound 2]
1.55e-07 M | 2.29e-07 M | 5.75e-06 M | 15.3% | – | – | O=C1NCCCNc2ncc(cn2)-c2ccnc(c2)Nc2cccc(c2)CN2CCN(CC2)C1CO (single isomer, unassigned) [Compound 3]
1.12e-07 M | 4.47e-07 M | 2.51e-06 M | 22.4% | – | – | COCC1C(=O)NCCCNc2ncc(cn2)-c2ccnc(c2)Nc2cccc(c2)CN2CCN1CC2 (single isomer, unassigned) [Compound 5]
3.09e-07 M | – | 1.55e-05 M | 70.6% | – | – | COC(=O)C1CCNC(=O)CN2CCN(CC2)Cc2cccc(c2)Nc2cc(ccn2)-c2cnc(nc2)N1 (single isomer, unassigned) [Compound 118]
3.55e-08 M | – | 1.58e-06 M | 40% | – | – | O=C1CN2CCN(CC2)Cc2cccc(c2)Nc2cc(ccn2)-c2ccc(nc2)N2CCCC2CCN1 (single isomer, unassigned) [Compound 142]
1.38e-05 M | 2.14e-06 M | > 3.02e-05 M | – | – | – | O=C1CN2CCN(CC2)Cc2cccc(c2)Nc2cc(ccn2)-c2ccc(nc2)N2CCCC2CCN1 (single isomer, unassigned) [Compound 143]
2.19e-08 M | 4.57e-07 M | 1.48e-06 M | 18.6% | – | – | O=C1NCCCNc2ncc(cn2)-c2ccnc(c2)Nc2cccc(c2)CN2CCN(CC2)C12COC2 [Compound 10]
> 3.02e-05 M | – | > 3.02e-05 M | 46.1% | – | – | CN1CCCN(CCCO)c2ncc(cn2)-c2ccnc(c2)Nc2cccc(c2)CN2CCN(CC2)CC1=O [Compound 16]
> 3.02e-05 M | – | > 3.02e-05 M | 62.4% | – | – | CN1CCN(CCCO)c2ncc(cn2)-c2ccnc(c2)Nc2cccc(c2)CN2CCN(CC2)CC1=O [Compound 17]
8.71e-08 M | 1.74e-07 M | 1.05e-06 M | 8.79% | – | – | CC1(C)CN2CCN1CC(=O)NCCCNc1ncc(cn1)-c1ccnc(c1)Nc1cccc(c1)C2 [Compound 18]
3.39e-08 M | 2.88e-07 M | 7.08e-07 M | – | – | – | CC1(C)CN2CCN1Cc1cccc(c1)Nc1cc(ccn1)-c1cnc(nc1)NCCCNC(=O)C2 [Compound 19]
2.24e-05 M | > 1e-05 M | > 1e-05 M | – | – | – | O=C1CN2CCN(Cc3cccc(c3)Nc3cc(ccn3)-c3cnc(nc3)NCCCN1)CC21CC1 [Compound 28]

Source: US20170022201A1, “MACROCYLIC PYRIDINE DERIVATIVES” (Janssen Pharmaceutica NV, priority 2014, published 2017)
